Laboratory results published in the supplement of paper PMC10307832.

What was measured:
Assay in all cases: relative viability (nuclei count vs DMSO), 5 days (fraction); higher = more cells survive
EHT 1864 = compound: C1COCCN1CC2=CC(=O)C(=CO2)OCCCCCSC3=C4C=CC(=CC4=NC=C3)C(F)(F)F [EHT 1864]
Method in brief: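 Following overnight incubation at 37 °C, lung cancer cell lines in 1536-well plates were pinned with five library-drug doses (not always all listed) in √10 steps on vehicle-anchored plates. The cells then spent 5 days without medium change before a combined fix, permeabilisation and Hoechst stain, 4× imaging and MetaXpress nuclear counts. Viability is the treated-to-vehicle ratio of nuclei, taken as the median across plates. Only plates with control CV below 25% and at least one doubling passed.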

EHT 1864 + Trametinib = compound: C1COCCN1CC2=CC(=O)C(=CO2)OCCCCCSC3=C4C=CC(=CC4=NC=C3)C(F)(F)F [EHT 1864] + CC(=O)Nc1cccc(-n2c(=O)n(C3CC3)c(=O)c3c(Nc4ccc(I)cc4F)n(C)c(=O)c(C)c32)c1 [Trametinib] (partner 0.02 µM)
Method in brief: (§1)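 Relative viability was taken as the ratio of nuclei in treated wells to nuclei in vehicle wells. Lung cancer cell lines in 1536-well plates received compounds by pin tool one day after seeding, either one drug alone or a fixed anchor-drug dose plus five library-drug doses (not always all listed) in √10 steps. Nuclei were counted on 4× images after 5 days of treatment, and values are medians of duplicate plates.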

EHT 1864 + OSI-027 = compound: C1COCCN1CC2=CC(=O)C(=CO2)OCCCCCSC3=C4C=CC(=CC4=NC=C3)C(F)(F)F [EHT 1864] + COc1cccc2cc(-c3nc([C@H]4CC[C@H](C(=O)O)CC4)n4ncnc(N)c34)[nH]c12 [OSI-027] (partner 0.5 µM)
Method in brief: as §1

EHT 1864 + Phenformin = compound: C1COCCN1CC2=CC(=O)C(=CO2)OCCCCCSC3=C4C=CC(=CC4=NC=C3)C(F)(F)F [EHT 1864] + N=C(N)NC(=N)NCCc1ccccc1 [Phenformin] (partner 250 µM)
Method in brief: as §1

Cell Line | relative viability (EHT 1864; 0.04 µM) | relative viability (EHT 1864; 0.1265 µM) | relative viability (EHT 1864; 0.4 µM) | relative viability (EHT 1864; 1.265 µM) | relative viability (EHT 1864; 4 µM) | relative viability (EHT 1864 + Trametinib; first compound 0.04 µM) | relative viability (EHT 1864 + Trametinib; first compound 0.1265 µM) | relative viability (EHT 1864 + Trametinib; first compound 0.4 µM) | relative viability (EHT 1864 + Trametinib; first compound 1.265 µM) | relative viability (EHT 1864 + Trametinib; first compound 4 µM) | relative viability (EHT 1864 + OSI-027; first compound 0.04 µM) | relative viability (EHT 1864 + OSI-027; first compound 0.1265 µM) | relative viability (EHT 1864 + OSI-027; first compound 0.4 µM) | relative viability (EHT 1864 + OSI-027; first compound 1.265 µM) | relative viability (EHT 1864 + OSI-027; first compound 4 µM) | relative viability (EHT 1864 + Phenformin; first compound 0.04 µM) | relative viability (EHT 1864 + Phenformin; first compound 0.1265 µM) | relative viability (EHT 1864 + Phenformin; first compound 0.4 µM) | relative viability (EHT 1864 + Phenformin; first compound 1.265 µM) | relative viability (EHT 1864 + Phenformin; first compound 4 µM)
ChaGo-K-1 | 1.02 | 0.976 | 0.996 | 0.95 | 0.992 | 0.839 | 0.85 | 0.89 | 0.911 | 0.871 | 0.512 | 0.476 | 0.7 | 0.562 | 0.517 | 0.497 | 0.427 | 0.544 | 0.48 | 0.463
EKVX | 0.96 | 0.931 | 0.946 | 0.962 | 0.968 | 0.412 | 0.35 | 0.35 | 0.367 | 0.28 | 0.705 | 0.68 | 0.698 | 0.711 | 0.839 | 0.23 | 0.235 | 0.223 | 0.252 | 0.245
EMC-BAC-2 | 1.02 | 0.896 | 1.04 | 0.993 | 0.971 | 0.759 | 0.721 | 0.889 | 0.924 | 0.99 | 0.465 | 0.309 | 0.383 | 0.37 | 0.341 | 0.549 | 0.48 | 0.558 | 0.502 | 0.486
EPLC-272H | 1.04 | 0.952 | 0.926 | 1.04 | 1.03 | 0.283 | 0.288 | 0.29 | 0.267 | 0.289 | 0.296 | 0.254 | 0.257 | 0.324 | 0.253 | 0.33 | 0.34 | 0.375 | 0.36 | 0.248
